# Measurements reported in patent US9078825B2, “Method for the production of bioadhesive compact matrices” (Università degli Studi di Genova, priority 2008, dated 2015).
# Counter-ions that a name gives are not always drawn.
# Experiment: Heating of the active substance at 150° C. for 15 minutes (HPLC, DSC, TGA, HSM, spectroscopic investigations)
# Type: physicochemical
# Procedure: Physical Stability Studies on the Active Substances and the Excipients Used in the Formulation of the Tablets.
# 5.0 mg carefully weighed of every excipient/substance was placed in aluminium pans, closed with a suitable press and analyzed by means of DSC (Perkin Elmer 7) under nitrogen flow; the analysis was also carried out on the thermally-treated powders. The operating conditions utilised were the following: initial temperature (Tstart)=50° C.; final temperature (Tend) 250° C.; gradient=10° C./min.
# The determination of the weight variations of the active substances and excipients, of the powder mixtures and the powders obtained by crushing the tablets was conducted through TGA 7 of Perkin Elmer, in nitrogen atmosphere, using the same temperatures and the same heating gradients used in the thermal heat treatments.
smiles,measurement,value
COc1ccc([C@@H]2Sc3ccccc3N(CCN(C)C)C(=O)[C@@H]2OC(C)=O)cc1 [Diltiazem hydrochloride],physical or chemical modification after heating,did not involve any physical or chemical modification
